In patent US11845747B2, “Ester and carbonate pyrimidine compounds as JAK kinase inhibitors” (priority 2019, dated 2023):
Values after ≈ are worked out from the molar mass of the structure shown.

Tests used:
[1] = system: IL-2 stimulated STAT5 phosphorylation in Tall-1 human T cell line (JAK1/3); assay: Inhibition of IL-2 stimulated pSTAT5 in Tall-1 T cells; type: cell-based; details: IL-2 300 ng/mL, AlphaLisa, read-out: Tall-1 IL2 pSTAT5 (pIC50) (converted)
Procedure: Assay 2: Inhibition of IL-2 Stimulated pSTAT5 in Tall-1 T Cells
The potency of test compounds for inhibition of interleukin-2 (IL-2) stimulated STATS phosphorylation was measured in the Tall-1 human T cell line (DSMZ) using AlphaLisa. Because IL-2 signals through JAK1/3, this assay provides a measure of JAK1/3 cellular potency.
Phosphorylated STAT5 was measured via the AlphaLISA SureFire Ultra pSTAT5 (Tyr694/699) kit (PerkinElmer). Human T cells from the Tall-1 cell line were cultured in a 37° C., 5% CO2 humidified incubator in RPMI (Life Technologies) supplemented with 15% Heat Inactivated Fetal Bovine Serum (FBS, Life Technologies), 2 mM Glutamax (Life Technologies), 25 mM HEPES (Life Technologies) and 1× Pen/Strep (Life Technologies). Compounds were serially diluted in DMSO and dispensed acoustically to empty wells. Assay media (phenol red-free DMEM (Life Technologies) supplemented with 10% FBS (ATCC)) was dispensed (4 μL/well) and plates shaken at 900 rpm for 10 mins. Cells were seeded at 45,000 cells/well in assay media (4 μL/well), and incubated at 37° C., 5% CO2 for 1 hour, followed by the addition of IL-2 (R&D Systems; final concentration 300 ng/mL) in pre-warmed assay media (4 μL) for 30 minutes. After cytokine stimulation, cells were lysed with 6 ul of 3× AlphaLisa Lysis Buffer (PerkinElmer) containing 1× PhosStop and Complete tablets (Roche). The lysate was shaken at 900 rpm for 10 minutes at room temperature (RT). Phosphorylated STAT5 was measured via the pSTAT5 AlphaLisa kit (PerkinElmer). Freshly prepared acceptor bead mixture was dispensed onto lysate (5 μL) under green filtered <100 lux light. Plates were shaken at 900 rpm for 2 mins, briefly spun down, and incubated for 2 hrs at RT in the dark. Donor beads were dispensed (5 μL) under green filtered <100 lux light. Plates were shaken at 900 rpm for 2 minutes, briefly spun down, and incubated overnight at RT in the dark. Luminescence was measured with excitation at 689 nm and emission at 570 nm using an EnVision plate r reader (PerkinElmer) under green filtered <100 lux light.
To determine the inhibitory potency of test compounds in response to IL-2, the average emission intensity of beads bound to pSTAT5 was measured in a human T cell line. IC50 values were determined from analysis of the inhibition curves of signal intensity versus compound concentration. Data are expressed as pIC50 (negative decadic logarithm IC50) values (mean±standard deviation).

[2] = In vitro skin S9 metabolic stability assay (human); type: in vitro ADME; details: human, s9, pH 7.4
Procedure: (§1) Assay 6: In Vitro Skin S9 Metabolic Stability Assay
(§2) The objective of this assay was to assess the metabolic stability of compounds in human and mouse skin S9 sub-fraction. Human and mouse skin S9 sub-fractions obtained from Bioreclamation-IVT (Baltimore, Md.) were thawed on ice and diluted into 0.1M potassium phosphate buffer pH 7.4 to yield final incubation protein concentrations of 1.0 mg/mL. Test compounds (10 mM) were diluted into phosphate buffer to yield final incubation concentrations of 0.2 μM and 2.0 μM. Incubations were conducted at 37° C. temperature following addition of 1 mM NADPH and test aliquots were taken at time points 0, 5, 10, 20, 30 and 45 minutes. Each aliquot was crashed into water with 3% formic acid and 1 μM internal standard. The resulting samples were injected onto an LC-MS/MS system for analysis.
(§3) For each incubation, the peak area of the analytes in each t0 aliquot was set to 100% and the peak areas from subsequent time point aliquots were converted to percentage of parent compound remaining relative to t0. The percentage of parent compound remaining at each time point was converted to natural log scale and plotted versus time in minutes to determine a disappearance half-life.

[3] = In vitro skin S9 metabolic stability assay (mouse); type: in vitro ADME; details: mouse, s9, pH 7.4
Procedure: as §1, §2, §3

physchem = type: physicochemical; details: pH 7.4, aqueous buffer, thermodynamic from solid
Procedure: Assay 4: Aqueous Solubility Assay The purpose of this assay was to quantify the solubility of test compounds in pH 4 and pH 7.4 PBS buffers. The assay required 40 μL of 10 mM DMSO test compound solution per desired buffer in addition to 20 μL required to make a test standard. For example, to test a compound in both buffers, 100 μL (2*40 μL+20 μL) of 10 mM DMSO compound stock solution was required. The standard was created by diluting 20 μL of 10 mM DMSO compound stock solution into 180 μL of methanol and was shaken for five minutes to ensure solution uniformity. […] This 1,000 μM solution was run on an Agilent 1260 LC-MS system by injecting 2 μL in order to obtain the peak area. For the test solutions, 40 μL of 10 mM DMSO compound stock solution, per PBS buffer condition, were dried down into a powder overnight. Once in powder form, 400 μL of the desired PBS buffer was added to the powder and allowed to shake vigorously for four hours. The maximum theoretical concentration for this sample solution was 1,000 μM. After four hours of shaking, the samples were centrifuged for 10 minutes at 3,000 RPM before injecting 2 μL on the same Agilent 1260 LC-MS system to obtain the peak area. […]

JAK2 = molecular target: T1, JAK2 (Homo sapiens, UniProt O60674); assay: Biochemical LanthaScreen JAK2 kinase assay; details: Km ATP 3 μM; pKi from pIC50 by Cheng-Prusoff; read-out: JAK 2 (pKi) (converted)
T1 construct: GST; purchased Life Technologies
Procedure: Assay 1: Biochemical JAK and Tyk2 Kinase Assays A panel of four LanthaScreen JAK biochemical assays (JAK1, 2, 3 and Tyk2) were carried in a common kinase reaction buffer (50 mM HEPES, pH 7.5, 0.01% Brij-35, 10 mM MgCl2, and 1 mM EGTA). Recombinant GST-tagged JAK enzymes and a GFP-tagged STAT1 peptide substrate were obtained from Life Technologies. Serially or discretely diluted compounds were pre-incubated with each of the four JAK enzymes and the substrate in white 384-well microplates (Corning) at ambient temperature for 1 h. ATP was subsequently added to initiate the kinase reactions in 10 μL total volume, with 1% DMSO. […] Kinase reactions were allowed to proceed for 1 hour at ambient temperature before a 10 μL preparation of EDTA (10 mM final concentration) and Tb-anti-pSTAT1 ([…]) antibody (Life Technologies, 2 nM final concentration) in TR-FRET dilution buffer (Life Technologies) was added. The plates were allowed to incubate at ambient temperature for 1 h before being read on the EnVision reader (Perkin Elmer). Emission ratio signals (520 nm/495 nm) were recorded and utilized to calculate the percent inhibition values based on DMSO and background controls. For dose-response analysis, percent inhibition data were plotted vs. compound concentrations, and IC50 values were determined from a 4-parameter robust fit model with the Prism software (GraphPad Software). Results were expressed as pIC50 (negative logarithm of IC50) and subsequently converted to pKi (negative logarithm of dissociation constant, Ki) using the Cheng-Prusoff equation.

T1 sequence (O60674 whole entry): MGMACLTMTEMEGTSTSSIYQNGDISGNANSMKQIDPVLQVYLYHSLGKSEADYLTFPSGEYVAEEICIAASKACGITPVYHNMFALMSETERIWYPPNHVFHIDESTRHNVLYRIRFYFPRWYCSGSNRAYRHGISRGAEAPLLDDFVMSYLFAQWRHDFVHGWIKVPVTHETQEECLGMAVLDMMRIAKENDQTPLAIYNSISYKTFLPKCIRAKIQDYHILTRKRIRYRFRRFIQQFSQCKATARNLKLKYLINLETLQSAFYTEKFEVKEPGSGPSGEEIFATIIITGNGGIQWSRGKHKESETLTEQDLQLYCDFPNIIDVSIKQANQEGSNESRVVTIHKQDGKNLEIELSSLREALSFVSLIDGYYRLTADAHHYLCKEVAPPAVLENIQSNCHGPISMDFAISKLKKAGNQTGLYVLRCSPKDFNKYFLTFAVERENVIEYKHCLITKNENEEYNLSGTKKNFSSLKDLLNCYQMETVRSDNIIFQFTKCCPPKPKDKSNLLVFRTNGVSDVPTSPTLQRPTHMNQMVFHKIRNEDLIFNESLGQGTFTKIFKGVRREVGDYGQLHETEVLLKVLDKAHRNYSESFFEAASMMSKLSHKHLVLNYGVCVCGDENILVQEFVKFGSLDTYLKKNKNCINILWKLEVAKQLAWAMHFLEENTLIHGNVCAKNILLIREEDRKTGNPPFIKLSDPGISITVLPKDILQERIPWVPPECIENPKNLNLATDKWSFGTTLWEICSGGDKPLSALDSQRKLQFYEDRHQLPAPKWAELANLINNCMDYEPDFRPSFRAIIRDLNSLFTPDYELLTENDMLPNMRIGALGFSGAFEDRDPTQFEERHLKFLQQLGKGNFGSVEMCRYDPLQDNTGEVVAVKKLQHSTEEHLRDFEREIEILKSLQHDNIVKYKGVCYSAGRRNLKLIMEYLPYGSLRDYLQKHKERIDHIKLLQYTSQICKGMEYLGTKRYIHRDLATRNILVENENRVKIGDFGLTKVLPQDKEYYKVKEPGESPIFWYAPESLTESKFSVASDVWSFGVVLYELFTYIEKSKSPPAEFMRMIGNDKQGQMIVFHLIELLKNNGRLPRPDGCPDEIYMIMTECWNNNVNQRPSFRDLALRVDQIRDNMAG

SMILES | IC50 [1] | half-life at 0.2 μM [2] | half-life at 2 μM [2] | half-life at 0.2 μM [3] | half-life at 2 μM [3] | solubility at 4 h (physchem) | Ki (JAK2)
CCS(=O)(=O)N1[C@@H]2CCC[C@H]1C[C@H](N(C)c1nc(COC(=O)OC3CCCCC3)c(F)c(Nc3cc(C)[nH]n3)n1)C2 [Compound 6, cyclohexyl ((2-(((1R,3s,5S)-9-(ethylsulfonyl)-9-azabicyclo[3.3.1]nonan-3-yl)(methyl)amino)-5-fluoro-6-((5-methyl-1H-pyrazol-3-yl)amino)pyrimidin-4-yl)methyl) carbonate] | 10 to 31.6 nM | > 30 min | > 30 min | < 15 min | < 15 min | 10 to 50 µM (≈ 5.94 to 29.7 µg/mL) | 0.1 to 1 nM
CCS(=O)(=O)N1[C@@H]2CCC[C@H]1C[C@H](N(C)c1nc(COC(C)=O)c(F)c(Nc3cc(C)[nH]n3)n1)C2 [Compound 1, (2-(((1R,3s,5S)-9-(ethylsulfonyl)-9-azabicyclo[3.3.1]nonan-3-yl)(methyl)amino)-5-fluoro-6-((5-methyl-1H-pyrazol-3-yl)amino)pyrimidin-4-yl)methyl acetate] | ≤ 10 nM | > 30 min | > 30 min | < 15 min | 15 to 30 min | 10 to 50 µM | ≤ 0.1 nM
CCC(=O)OCc1nc(N(C)[C@@H]2C[C@H]3CCC[C@@H](C2)N3S(=O)(=O)CC)nc(Nc2cc(C)[nH]n2)c1F [Compound 2, (2-(((1R,3s,5S)-9-(ethylsulfonyl)-9-azabicyclo[3.3.1]nonan-3-yl)(methyl)amino)-5-fluoro-6-((5-methyl-1H-pyrazol-3-yl)amino)pyrimidin-4-yl)methyl propionate] | ≤ 10 nM | > 30 min | > 30 min | 15 to 30 min | 15 to 30 min | 10 to 50 µM (≈ 5.24 to 26.2 µg/mL) | –
CCCCCCC(=O)OCc1nc(N(C)[C@@H]2C[C@H]3CCC[C@@H](C2)N3S(=O)(=O)CC)nc(Nc2cc(C)[nH]n2)c1F [Compound 5, (2-(((1R,3s,5S)-9-(ethylsulfonyl)-9-azabicyclo[3.3.1]nonan-3-yl)(methyl)amino)-5-fluoro-6-((5-methyl-1H-pyrazol-3-yl)amino)pyrimidin-4-yl)methyl heptanoate] | ≤ 10 nM | – | – | – | – | 10 to 50 µM (≈ 5.8 to 29 µg/mL) | –
CCCCC(=O)OCc1nc(N(C)[C@@H]2C[C@H]3CCC[C@@H](C2)N3S(=O)(=O)CC)nc(Nc2cc(C)[nH]n2)c1F [Compound 4, (2-(((1R,3s,5S)-9-(ethylsulfonyl)-9-azabicyclo[3.3.1]nonan-3-yl)(methyl)amino)-5-fluoro-6-((5-methyl-1H-pyrazol-3-yl)amino)pyrimidin-4-yl)methyl pentanoate] | ≤ 10 nM | 15 to 30 min | > 30 min | < 15 min | < 15 min | 50 to 100 µM (≈ 27.6 to 55.2 µg/mL) | –
CCS(=O)(=O)N1[C@@H]2CCC[C@H]1C[C@H](N(C)c1nc(CO)c(F)c(Nc3cc(C)[nH]n3)n1)C2 [Compound M, (2-(((1R,3s,5S)-9-(ethylsulfonyl)-9-azabicyclo[3.3.1]nonan-3-yl)(methyl)amino)-5-fluoro-6-((5-methyl-1H-pyrazol-3-yl)amino)pyrimidin-4-yl)methanol] | ≤ 10 nM | – | – | – | – | 10 to 50 µM (≈ 4.68 to 23.4 µg/mL) | ≤ 0.1 nM
CCCC(=O)OCc1nc(N(C)[C@@H]2C[C@H]3CCC[C@@H](C2)N3S(=O)(=O)CC)nc(Nc2cc(C)[nH]n2)c1F [Compound 3, (2-(((1R,3s,5S)-9-(ethylsulfonyl)-9-azabicyclo[3.3.1]nonan-3-yl)(methyl)amino)-5-fluoro-6-((5-methyl-1H-pyrazol-3-yl)amino)pyrimidin-4-yl)methyl butyrate] | ≤ 10 nM | > 30 min | > 30 min | < 15 min | < 15 min | 10 to 50 µM (≈ 5.38 to 26.9 µg/mL) | –
CCS(=O)(=O)N1[C@@H]2CCC[C@H]1C[C@H](N(C)c1nc(COC(=O)C3CCOCC3)c(F)c(Nc3cc(C)[nH]n3)n1)C2 [Compound 7, (2-(((1R,3s,5S)-9-(ethylsulfonyl)-9-azabicyclo[3.3.1]nonan-3-yl)(methyl)amino)-5-fluoro-6-((5-methyl-1H-pyrazol-3-yl)amino)pyrimidin-4-yl)methyl tetrahydro-2H-pyran-4-carboxylate] | ≤ 10 nM | – | – | – | – | 100 to 1000 µM (≈ 58 to 580 µg/mL) | ≤ 0.1 nM
CCS(=O)(=O)N1[C@@H]2CCC[C@H]1C[C@H](N(C)c1nc(COC(=O)OC3CCOCC3)c(F)c(Nc3cc(C)[nH]n3)n1)C2 [Compound 9, (2-(((1R,3s,5S)-9-(ethylsulfonyl)-9-azabicyclo[3.3.1]nonan-3-yl)(methyl)amino)-5-fluoro-6-((5-methyl-1H-pyrazol-3-yl)amino)pyrimidin-4-yl)methyl (tetrahydro-2H-pyran-4-yl) carbonate] | ≤ 10 nM | – | – | – | – | 100 to 1000 µM (≈ 59.6 to 596 µg/mL) | ≤ 0.1 nM
CCS(=O)(=O)N1[C@@H]2CCC[C@H]1C[C@H](N(C)c1nc(COC(=O)OC(C)C)c(F)c(Nc3cc(C)[nH]n3)n1)C2 [Compound 8, (2-(((1R,3s,5S)-9-(ethylsulfonyl)-9-azabicyclo[3.3.1]nonan-3-yl)(methyl)amino)-5-fluoro-6-((5-methyl-1H-pyrazol-3-yl)amino)pyrimidin-4-yl)methyl isopropyl carbonate] | ≤ 10 nM | – | – | – | – | 50 to 100 µM (≈ 27.7 to 55.4 µg/mL) | –
